{"source": "ChEMBL document CHEMBL3638676", "about": "“Triazolopyridine compounds” (2015)", "biological_target": "Phosphodiesterase 3 (Homo sapiens, UniProt Q14432+Q13370)", "assay": "Scintillation Proximity Assay (SPA): The kinase assay is based on the LanthaScreen technology.", "type": "protein assay"}
{"smiles": "Cn1cc(-c2cc(F)c3nnc(Sc4ccc5ncc(NCCO)cc5c4)n3c2)cn1", "values": [{"measurement": "IC50", "value": 13, "unit": "µM"}]}
